Laboratory results reported in patent publication US20230270743A1, “USE OF BTK INHIBITORS IN THE TREATMENT OF DISEASES” (JIANGSU HENGRUI PHARMACEUTICALS CO., LTD., priority 2020, published 2023).

System: patients diagnosed with AQP4-IgG positive NMOSD
Test: Clinical research of the compound of formula (I) in treating neuromyelitis optica spectrum disorder (NMOSD)
Assay type: in vivo, human
Procedure: Average annualized relapse rate (ARR)=total number of episodes of subjects/(number of subjects*observation time).
Example 1: Clinical Research of the Compound of Formula (I) in Treating Neuromyelitis Optica Spectrum Disorder (NMOSD)
Tablets of the compound of formula (I), specification: 100 mg/tablet.
1) Male or female from 18 to 75 years old (including 18 and 75 years old);
2) Patients diagnosed with AQP4-IgG positive NMOSD according to the 2015 IPND diagnostic criteria;
3) Requirements for history of relapse: 2 or more relapses of NMOSD requiring rescue therapy within 1 year before baseline, the rescue therapy can include IV glucocorticoid, plasma exchange, and/or intravenous immune globulin (IVIG);
4) Subjects must have been on stable treatment (if any) for more than 1 month before starting test drug treatment, defined as follows: • the amount of immunosuppressant (such as tacrolimus, azathioprine, mycophenolate) and/or oral corticosteroid must be stable or in the process of reduction, and the acute phase rescue therapy (such as IV glucocorticoid, plasma exchange, and/or intravenous immunoglobulin) must be completed for more than 1 month.
The test drug was administered to the qualified subjects in the morning on an empty stomach, once a day, one tablet at a time, and 100 mg per tablet.
At present, the study has completed the enrollment of all 10 subjects, and the average annualized relapse rate (ARR=the total number of episodes of subjects/(number of subjects*observation time)) of all subjects before enrollment was 2.1. By now, an annualized relapse rate of 0.7 for existing subjects after baseline medication has been observed. A patient with a 7-year history of NMOSD had severe symptoms (unable to stand) before participating in the trial. […] At the 7th week of medication, the patient could walk more than 20 meters with assistance, and could substantially take care of themself.

With `CC#CC(=O)N1CC[C@@H](n2cc(-c3ccc(Oc4c(F)cccc4F)cc3)c3c(N)n[nH]c(=O)c32)C1` [compound of formula (I), (R)-4-amino-1-(1-(but-2-ynoyl)pyrrolidin-3-yl)-3-(4-(2,6-difluorophenoxy)phenyl)-1,6-dihydro-7H-pyrrolo[2,3-d]pyridazin-7-one] the “annualized relapse rate (ARR) after baseline medication” value (AQP4-IgG positive NMOSD subjects (10 enrolled), 100 mg tablet once a day, morning, empty stomach, average ARR before enrollment was 2.1, interim (by now)) was 0.7, the mobility of patient (patient, 7-year history of NMOSD, unable to stand before trial, after 4 weeks of administration, could stand up and walk several steps with assistance) was “significantly improved mobility” and the “walking distance with assistance” value (same patient, at the 7th week of medication, could substantially take care of themself) was “more than 20 meters”.
